Columns and labels:
JAK1 = system: JAK1; set-up: method as in PMID 32297743; settings: ref [9]; cited from earlier work
Safety (TEAEs), JACKPOT3 = format: in vivo, human; settings: n = 6
Description: (§1) The safety monitoring for both JACKPOT2 and JACKPOT3 was similar, included monitoring of adverse events/serious adverse events, clinical safety laboratory tests (clinical chemistry, hematology, coagulation, and urinalysis tests), 12-lead ECG, vital signs (blood pressure, pulse rate, and respiratory rate), and pulmonary function.

Permeability in vitro = format: in vitro ADME
[1] = Overall safety and tolerability, JACKPOT2 and JACKPOT3; format: in vivo, human
Description: Safety assessments included monitoring of adverse events/serious adverse events, clinical safety laboratory tests (clinical chemistry, hematology, coagulation, and urinalysis tests), 12-lead ECG, vital signs (blood pressure, pulse rate, and respiratory rate), and pulmonary function. All adverse events were coded using the Medical Dictionary for Regulatory Activities (MedDRA), version 22.0. The CTCAE 5.0 was used to define the intensity of AEs.
as §1

COc1nn(C)cc1Nc1nccc(-c2c[nH]c3c(NC(=O)[C@@H](C)N4CCN(C)CC4)cccc23)n1 [golidocitinib, (2R)-N-[3-[2-[(3-Methoxy-1-methyl-pyrazol-4-yl)amino]pyrimidin-4-yl]-1H-indol-7-yl]-2-(4-methylpiperazin-1-yl)propenamide]
selectivity to JAK1 over other JAK family kinases (JAK1): greater than 200 folds | ALT Increased (Safety (TEAEs), JACKPOT3; 25 mg): 0 n (%) | AST Increased (Safety (TEAEs), JACKPOT3; 25 mg): 0 n (%) | Abdominal discomfort (Safety (TEAEs), JACKPOT3; 25 mg): 1 (16.7%) n (%) | Blood and Lymphatic System Disorders (Safety (TEAEs), JACKPOT3; 25 mg): 1 (16.7%) n (%) | Blood bilirubin increased (Safety (TEAEs), JACKPOT3; 25 mg): 0 n (%) | Blood cholesterol increased (Safety (TEAEs), JACKPOT3; 25 mg): 0 n (%) | C-reactive protein increased (Safety (TEAEs), JACKPOT3; 25 mg): 1 (16.7%) n (%) | Diarrhea (Safety (TEAEs), JACKPOT3; 25 mg): 1 (16.7%) n (%) | ECG QT prolonged (Safety (TEAEs), JACKPOT3; 25 mg): 0 n (%) | Epistaxis (Safety (TEAEs), JACKPOT3; 25 mg): 0 n (%) | Gastrointestinal disorders (Safety (TEAEs), JACKPOT3; 25 mg): 2 (33.3%) n (%) | Glucose urine present (Safety (TEAEs), JACKPOT3; 25 mg): 0 n (%) | Hemoglobin decreased (Safety (TEAEs), JACKPOT3; 25 mg): 0 n (%) | Hypertriglyceridemia (Safety (TEAEs), JACKPOT3; 25 mg): 0 n (%) | Injury, poisoning and procedural complications (Safety (TEAEs), JACKPOT3; 25 mg): 1 (16.7%) n (%) | Investigations (Safety (TEAEs), JACKPOT3; 25 mg): 2 (33.3%) n (%) | LDH increased (Safety (TEAEs), JACKPOT3; 25 mg): 0 n (%) | LDL increased (Safety (TEAEs), JACKPOT3; 25 mg): 0 n (%) | Leukocytosis (Safety (TEAEs), JACKPOT3; 25 mg): 1 (16.7%) n (%) | Limb injury (Safety (TEAEs), JACKPOT3; 25 mg): 1 (16.7%) n (%) | Metabolism and nutrition disorders (Safety (TEAEs), JACKPOT3; 25 mg): 0 n (%) | Musculoskeletal and connective tissue disorders (Safety (TEAEs), JACKPOT3; 25 mg): 0 n (%) | Musculoskeletal pain (Safety (TEAEs), JACKPOT3; 25 mg): 0 n (%) | Musculoskeletal stiffness (Safety (TEAEs), JACKPOT3; 25 mg): 0 n (%) | Neutrophil count decreased (Safety (TEAEs), JACKPOT3; 25 mg): 1 (16.7%) n (%) | Productive cough (Safety (TEAEs), JACKPOT3; 25 mg): 1 (16.7%) n (%) | Respiratory, Thoracic and Mediastinal Disorders (Safety (TEAEs), JACKPOT3; 25 mg): 1 (16.7%) n (%) | Rhinorrhea (Safety (TEAEs), JACKPOT3; 25 mg): 0 n (%) | Subjects with at least one TEAE (Safety (TEAEs), JACKPOT3; 25 mg): 4 (66.7%) n (%) | Wound (Safety (TEAEs), JACKPOT3; 25 mg): 0 n (%) | ALT Increased (Safety (TEAEs), JACKPOT3; 50 mg): 1 (16.7%) n (%) | AST Increased (Safety (TEAEs), JACKPOT3; 50 mg): 2 (33.3%) n (%) | Abdominal discomfort (Safety (TEAEs), JACKPOT3; 50 mg): 0 n (%) | Blood and Lymphatic System Disorders (Safety (TEAEs), JACKPOT3; 50 mg): 0 n (%) | Blood bilirubin increased (Safety (TEAEs), JACKPOT3; 50 mg): 1 (16.7%) n (%) | Blood cholesterol increased (Safety (TEAEs), JACKPOT3; 50 mg): 0 n (%) | C-reactive protein increased (Safety (TEAEs), JACKPOT3; 50 mg): 0 n (%) | Diarrhea (Safety (TEAEs), JACKPOT3; 50 mg): 0 n (%) | ECG QT prolonged (Safety (TEAEs), JACKPOT3; 50 mg): 0 n (%) | Epistaxis (Safety (TEAEs), JACKPOT3; 50 mg): 0 n (%) | Gastrointestinal disorders (Safety (TEAEs), JACKPOT3; 50 mg): 0 n (%) | Glucose urine present (Safety (TEAEs), JACKPOT3; 50 mg): 0 n (%) | Hemoglobin decreased (Safety (TEAEs), JACKPOT3; 50 mg): 0 n (%) | Hypertriglyceridemia (Safety (TEAEs), JACKPOT3; 50 mg): 1 (16.7%) n (%) | Injury, poisoning and procedural complications (Safety (TEAEs), JACKPOT3; 50 mg): 0 n (%) | Investigations (Safety (TEAEs), JACKPOT3; 50 mg): 3 (50.0%) n (%) | LDH increased (Safety (TEAEs), JACKPOT3; 50 mg): 1 (16.7%) n (%) | LDL increased (Safety (TEAEs), JACKPOT3; 50 mg): 1 (16.7%) n (%) | Leukocytosis (Safety (TEAEs), JACKPOT3; 50 mg): 0 n (%) | Limb injury (Safety (TEAEs), JACKPOT3; 50 mg): 0 n (%) | Metabolism and nutrition disorders (Safety (TEAEs), JACKPOT3; 50 mg): 1 (16.7%) n (%) | Musculoskeletal and connective tissue disorders (Safety (TEAEs), JACKPOT3; 50 mg): 0 n (%) | Musculoskeletal pain (Safety (TEAEs), JACKPOT3; 50 mg): 0 n (%) | Musculoskeletal stiffness (Safety (TEAEs), JACKPOT3; 50 mg): 0 n (%) | Neutrophil count decreased (Safety (TEAEs), JACKPOT3; 50 mg): 0 n (%) | Productive cough (Safety (TEAEs), JACKPOT3; 50 mg): 0 n (%) | Respiratory, Thoracic and Mediastinal Disorders (Safety (TEAEs), JACKPOT3; 50 mg): 0 n (%) | Rhinorrhea (Safety (TEAEs), JACKPOT3; 50 mg): 0 n (%) | Subjects with at least one TEAE (Safety (TEAEs), JACKPOT3; 50 mg): 3 (50.0%) n (%) | Wound (Safety (TEAEs), JACKPOT3; 50 mg): 0 n (%) | ALT Increased (Safety (TEAEs), JACKPOT3; 100 mg): 1 (16.7%) n (%) | AST Increased (Safety (TEAEs), JACKPOT3; 100 mg): 0 n (%) | Abdominal discomfort (Safety (TEAEs), JACKPOT3; 100 mg): 0 n (%) | Blood and Lymphatic System Disorders (Safety (TEAEs), JACKPOT3; 100 mg): 0 n (%) | Blood bilirubin increased (Safety (TEAEs), JACKPOT3; 100 mg): 0 n (%) | Blood cholesterol increased (Safety (TEAEs), JACKPOT3; 100 mg): 0 n (%) | C-reactive protein increased (Safety (TEAEs), JACKPOT3; 100 mg): 1 (16.7%) n (%) | Diarrhea (Safety (TEAEs), JACKPOT3; 100 mg): 0 n (%) | ECG QT prolonged (Safety (TEAEs), JACKPOT3; 100 mg): 0 n (%) | Epistaxis (Safety (TEAEs), JACKPOT3; 100 mg): 1 (16.7%) n (%) | Gastrointestinal disorders (Safety (TEAEs), JACKPOT3; 100 mg): 0 n (%) | Glucose urine present (Safety (TEAEs), JACKPOT3; 100 mg): 0 n (%) | Hemoglobin decreased (Safety (TEAEs), JACKPOT3; 100 mg): 0 n (%) | Hypertriglyceridemia (Safety (TEAEs), JACKPOT3; 100 mg): 2 (33.3%) n (%) | Injury, poisoning and procedural complications (Safety (TEAEs), JACKPOT3; 100 mg): 0 n (%) | Investigations (Safety (TEAEs), JACKPOT3; 100 mg): 2 (33.3%) n (%) | LDH increased (Safety (TEAEs), JACKPOT3; 100 mg): 0 n (%) | LDL increased (Safety (TEAEs), JACKPOT3; 100 mg): 0 n (%) | Leukocytosis (Safety (TEAEs), JACKPOT3; 100 mg): 0 n (%) | Limb injury (Safety (TEAEs), JACKPOT3; 100 mg): 0 n (%) | Metabolism and nutrition disorders (Safety (TEAEs), JACKPOT3; 100 mg): 2 (33.3%) n (%) | Musculoskeletal and connective tissue disorders (Safety (TEAEs), JACKPOT3; 100 mg): 1 (16.7%) n (%) | Musculoskeletal pain (Safety (TEAEs), JACKPOT3; 100 mg): 0 n (%) | Musculoskeletal stiffness (Safety (TEAEs), JACKPOT3; 100 mg): 1 (16.7%) n (%) | Neutrophil count decreased (Safety (TEAEs), JACKPOT3; 100 mg): 0 n (%) | Productive cough (Safety (TEAEs), JACKPOT3; 100 mg): 0 n (%) | Respiratory, Thoracic and Mediastinal Disorders (Safety (TEAEs), JACKPOT3; 100 mg): 1 (16.7%) n (%) | Rhinorrhea (Safety (TEAEs), JACKPOT3; 100 mg): 0 n (%) | Subjects with at least one TEAE (Safety (TEAEs), JACKPOT3; 100 mg): 4 (66.7%) n (%) | Wound (Safety (TEAEs), JACKPOT3; 100 mg): 0 n (%) | ALT Increased (Safety (TEAEs), JACKPOT3; 150 mg): 0 n (%) | AST Increased (Safety (TEAEs), JACKPOT3; 150 mg): 0 n (%) | Abdominal discomfort (Safety (TEAEs), JACKPOT3; 150 mg): 0 n (%) | Blood and Lymphatic System Disorders (Safety (TEAEs), JACKPOT3; 150 mg): 0 n (%) | Blood bilirubin increased (Safety (TEAEs), JACKPOT3; 150 mg): 2 (33.3%) n (%) | Blood cholesterol increased (Safety (TEAEs), JACKPOT3; 150 mg): 1 (16.7%) n (%) | C-reactive protein increased (Safety (TEAEs), JACKPOT3; 150 mg): 1 (16.7%) n (%) | Diarrhea (Safety (TEAEs), JACKPOT3; 150 mg): 1 (16.7%) n (%) | ECG QT prolonged (Safety (TEAEs), JACKPOT3; 150 mg): 1 (16.7%) n (%) | Epistaxis (Safety (TEAEs), JACKPOT3; 150 mg): 0 n (%) | Gastrointestinal disorders (Safety (TEAEs), JACKPOT3; 150 mg): 1 (16.7%) n (%) | Glucose urine present (Safety (TEAEs), JACKPOT3; 150 mg): 1 (16.7%) n (%) | Hemoglobin decreased (Safety (TEAEs), JACKPOT3; 150 mg): 1 (16.7%) n (%) | Hypertriglyceridemia (Safety (TEAEs), JACKPOT3; 150 mg): 2 (33.3%) n (%) | Injury, poisoning and procedural complications (Safety (TEAEs), JACKPOT3; 150 mg): 1 (16.7%) n (%) | Investigations (Safety (TEAEs), JACKPOT3; 150 mg): 4 (66.7%) n (%) | LDH increased (Safety (TEAEs), JACKPOT3; 150 mg): 0 n (%) | LDL increased (Safety (TEAEs), JACKPOT3; 150 mg): 1 (16.7%) n (%) | Leukocytosis (Safety (TEAEs), JACKPOT3; 150 mg): 0 n (%) | Limb injury (Safety (TEAEs), JACKPOT3; 150 mg): 0 n (%) | Metabolism and nutrition disorders (Safety (TEAEs), JACKPOT3; 150 mg): 2 (33.3%) n (%) | Musculoskeletal and connective tissue disorders (Safety (TEAEs), JACKPOT3; 150 mg): 1 (16.7%) n (%) | Musculoskeletal pain (Safety (TEAEs), JACKPOT3; 150 mg): 1 (16.7%) n (%) | Musculoskeletal stiffness (Safety (TEAEs), JACKPOT3; 150 mg): 0 n (%) | Neutrophil count decreased (Safety (TEAEs), JACKPOT3; 150 mg): 2 (33.3%) n (%) | Productive cough (Safety (TEAEs), JACKPOT3; 150 mg): 0 n (%) | Respiratory, Thoracic and Mediastinal Disorders (Safety (TEAEs), JACKPOT3; 150 mg): 1 (16.7%) n (%) | Rhinorrhea (Safety (TEAEs), JACKPOT3; 150 mg): 1 (16.7%) n (%) | Subjects with at least one TEAE (Safety (TEAEs), JACKPOT3; 150 mg): 6 (100%) n (%) | Wound (Safety (TEAEs), JACKPOT3; 150 mg): 1 (16.7%) n (%) | permeability (Permeability in vitro): high permeability | tolerability ([1]; healthy participants, 5 mg to 150 mg single dose, 25 mg to 100 mg multiple dose): well-tolerated | serious adverse events ([1]; in vivo): No serious adverse events were reported | CTCAE grade 3 or higher drug-related TEAE ([1]; investigators' assessment): no CTCAE grade 3 or higher drug-related TEAE was reported
